The record followed here is patent US12419824B2, “Compounds useful for the treatment and/or care of the skin, hair, nails and/or mucous membranes” (Lubrizol Advanced Materials, Inc., priority 2019, dated 2025).

The experiment deals with human muscular skeletal cells (hSKMC). Put plainly: Alleviation (correction) of TNF-α induced muscle mass loss in human skeletal muscle cells, immunofluorescence (Example 10). Particulars: 0.01 mg/ml after 24 hours of 20 ng/ml TNFα, myotube diameter threshold 20 μm. It is filed as cell-based. As for the experimental part: Muscle mass loss correction by the peptides of the invention is evaluated by an immunofluorescence assay. The aim of this study is to investigate the capacity of peptide candidates to correct muscular mass loss after treatment with TNF-α in human muscular skeletal cells (hSKMC). Myosin heavy chain (MHyC) is used as a morphologic marker of differentiated myotubes allowing the measurement of their diameter, and therefore knowing their degree of mass loss. Tumor necrosis factor α (TNF-α) has been described in the literature as a muscle mass loss inductor.
hSKMC (Tebu-Bio) are seeded in 96-well plates at a density of 1.5×10^4 cells/well in Skeletal Muscle Cell Growth Medium (Promocell). After 24 hours incubation, medium is replaced with Skeletal Muscle Cell Differentiation Medium (Promocell) and cells are differentiated for 6 days. After this, muscular cells mass loss is induced by adding fresh differentiation medium with 20 ng/ml TNFα (Sigma). Non-TNFα treated cells are used as basal mass loss control (BC). […] After 24 hours after the second treatment, immunofluorescence is determined. […] Finally, myotube diameter is determined by imaging MHyC staining by Operetta™ (Perkin Elmer). Percentage of mass loss is automatically calculated with Harmony™ (Perkin Elmer) software by classifying myotubes according to their diameter using a mass loss threshold of 20 μm.

On to “Ac-Asp-Val-Tyr-Lys-NH2 (Ac-DVYK-NH2) [PEP1]”, for which the “muscle mass loss compared to basal control treated with TNF-α (correction)” value is “correct (i.e., reduces) mass loss”.

Consider “H-Ala-Leu-Lys-Pro-Asn-Thr-NH2 (H-ALKPNT-NH2) [PEP2]”, for which the “muscle mass loss compared to basal control treated with TNF-α (correction)” value is “correct (i.e., reduces) mass loss”.
